# Laboratory results: patent US10028960B2, “Pyrimidine compounds as JAK kinase inhibitors” (THERAVANCE BIOPHARMA R&D IP, LLC, priority 2016, dated 2018)
# Entries after “also recorded” stand apart in the source; their conditions may differ.
# Experiments:
# [1] = test system: TPA-induced increase in ear thickness; test: Topical TPA-induced irritant contact dermatitis model in mice; type: in vivo, Balb/c mice; conditions: mouse ear, 6 hours after TPA
# Description: The objective of this assay is to assess the anti-inflammatory effect in a model of acute dermatitis of test compounds being studied for cutaneous inflammatory conditions such as atopic dermatitis (Dong et al., J Pharmacol Exp Ther, 2013, 344, 436-446).
# Topical dermal application of phorbol ester 12-O-tetradecanoylphorbol-13-acetate (TPA) in mice causes an inflammatory response that is characterized by edema and neutrophil influx at the early phase (2-24 h) and by epidermal cell proliferation at the later phase (24-48 h) (Griffiths et al., Agents and Actions, 1988, 25, 344-351). Female Balb/c mice were topically administered with either vehicle (1:7 DMSO:acetone) or 20 μL of a solution of TPA (2.5 μg) in vehicle on each ear. At 30 min before and 15 min after TPA administration, either vehicle or the compound of Example 2 at doses of 30, 100, 300, 1000, and 3000 μg in vehicle was applied topically to each ear. The degree of inflammation was assessed as the change in ear thickness at 6 hours after TPA application.
# [2] = Determination of absorption in cannulated rats; type: in vivo, Sprague Dawley rats; conditions: rat
# Description: Oral bioavailability (F %), fraction absorbed (Fa %) and fraction escaping hepatic clearance (Fh %) were determined in Sprague Dawley rats from the following two studies:
# (1) Pharmacokinetics in rats following an IV dose of test compound: Following IV dosing, plasma samples were typically collected from 0-6 hr. Drug levels were determined using an LC-MS-MS method. The resulting drug levels were used to compute the IV pharmacokinetic parameters: AUC IV and Dose IV.
# (2) Rats that have been cannulated in their portal vein (PV) and also in their jugular vein (JV) were dosed orally with test compound. Following oral dosing, plasma samples were typically collected from 0-6 hr from both the portal vein and the jugular vein. Drug levels were determined using an LC-MS-MS method. The resulting drug levels were used to compute the following pharmacokinetic parameters: AUC PO PV, AUC PO JV, and Dose PO.
# Using data derived from the above studies, the oral bioavailability F %, and the quantities Fa % and Fh % were calculated from the following formulas: F %=(AUC PO JV/AUC IV)*(Dose IV/Dose PO)*100 Fa %=(AUC PO PV/AUC IV)*(Dose IV/Dose PO)*100 Fh %=AUC PO JV/AUC PO PV
# AUC PO JV=Area under the curve following oral dose and plasma collected from the jugular vein
# AUC PO PV=Area under the curve following oral dose and plasma collected from the portal vein
# AUC IV=Area under the curve following an intravenous dose
# Dose IV=Intravenous Dose in mg/kg
# Dose PO=Oral Dose in mg/kg
# JAK2 = JAK2 (Homo sapiens (Human), UniProt O60674); test: LanthaScreen JAK biochemical assay, JAK2
# Description: (§1) A panel of four LanthaScreen JAK biochemical assays (JAK1, 2, 3 and Tyk2) were carried in a common kinase reaction buffer (50 mM HEPES, pH 7.5, 0.01% Brij-35, 10 mM MgCl2, and 1 mM EGTA). Recombinant GST-tagged JAK enzymes and a GFP-tagged STAT1 peptide substrate were obtained from Life Technologies.
# JAK3 = JAK3 (Homo sapiens (Human), UniProt P52333); test: LanthaScreen JAK biochemical assay, JAK3; conditions: read-out: JAK 3 (pKi) (converted)
# Description: as §1
# JAK3, sequence (P52333 whole entry): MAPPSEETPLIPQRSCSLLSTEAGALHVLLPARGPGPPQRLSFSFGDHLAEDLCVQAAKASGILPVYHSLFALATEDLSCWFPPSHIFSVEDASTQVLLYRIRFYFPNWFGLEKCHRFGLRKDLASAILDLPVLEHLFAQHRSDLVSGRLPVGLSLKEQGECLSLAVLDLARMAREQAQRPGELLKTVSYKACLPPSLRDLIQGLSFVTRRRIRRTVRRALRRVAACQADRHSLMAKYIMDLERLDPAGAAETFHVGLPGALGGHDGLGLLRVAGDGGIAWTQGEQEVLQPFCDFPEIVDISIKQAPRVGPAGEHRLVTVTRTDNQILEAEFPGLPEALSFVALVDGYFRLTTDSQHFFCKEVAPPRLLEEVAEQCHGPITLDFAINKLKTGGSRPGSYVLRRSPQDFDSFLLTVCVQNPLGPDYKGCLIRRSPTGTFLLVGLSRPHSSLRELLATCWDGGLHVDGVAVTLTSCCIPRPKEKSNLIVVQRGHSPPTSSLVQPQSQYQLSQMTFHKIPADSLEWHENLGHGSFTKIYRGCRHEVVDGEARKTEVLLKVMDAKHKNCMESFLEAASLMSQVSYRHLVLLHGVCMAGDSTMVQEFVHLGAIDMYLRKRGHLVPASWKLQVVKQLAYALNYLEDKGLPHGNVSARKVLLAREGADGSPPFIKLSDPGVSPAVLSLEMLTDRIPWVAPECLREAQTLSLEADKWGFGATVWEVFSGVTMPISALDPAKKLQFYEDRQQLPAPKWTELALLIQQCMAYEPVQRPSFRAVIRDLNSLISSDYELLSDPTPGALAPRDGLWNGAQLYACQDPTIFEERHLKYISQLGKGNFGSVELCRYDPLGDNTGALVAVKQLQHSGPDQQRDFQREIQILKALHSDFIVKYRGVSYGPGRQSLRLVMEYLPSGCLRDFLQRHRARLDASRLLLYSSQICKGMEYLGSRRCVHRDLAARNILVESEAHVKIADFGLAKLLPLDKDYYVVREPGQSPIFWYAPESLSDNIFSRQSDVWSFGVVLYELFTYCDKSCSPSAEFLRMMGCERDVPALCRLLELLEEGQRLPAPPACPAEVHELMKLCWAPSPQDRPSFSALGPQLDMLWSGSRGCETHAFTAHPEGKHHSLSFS
# JAK2, sequence (O60674 whole entry): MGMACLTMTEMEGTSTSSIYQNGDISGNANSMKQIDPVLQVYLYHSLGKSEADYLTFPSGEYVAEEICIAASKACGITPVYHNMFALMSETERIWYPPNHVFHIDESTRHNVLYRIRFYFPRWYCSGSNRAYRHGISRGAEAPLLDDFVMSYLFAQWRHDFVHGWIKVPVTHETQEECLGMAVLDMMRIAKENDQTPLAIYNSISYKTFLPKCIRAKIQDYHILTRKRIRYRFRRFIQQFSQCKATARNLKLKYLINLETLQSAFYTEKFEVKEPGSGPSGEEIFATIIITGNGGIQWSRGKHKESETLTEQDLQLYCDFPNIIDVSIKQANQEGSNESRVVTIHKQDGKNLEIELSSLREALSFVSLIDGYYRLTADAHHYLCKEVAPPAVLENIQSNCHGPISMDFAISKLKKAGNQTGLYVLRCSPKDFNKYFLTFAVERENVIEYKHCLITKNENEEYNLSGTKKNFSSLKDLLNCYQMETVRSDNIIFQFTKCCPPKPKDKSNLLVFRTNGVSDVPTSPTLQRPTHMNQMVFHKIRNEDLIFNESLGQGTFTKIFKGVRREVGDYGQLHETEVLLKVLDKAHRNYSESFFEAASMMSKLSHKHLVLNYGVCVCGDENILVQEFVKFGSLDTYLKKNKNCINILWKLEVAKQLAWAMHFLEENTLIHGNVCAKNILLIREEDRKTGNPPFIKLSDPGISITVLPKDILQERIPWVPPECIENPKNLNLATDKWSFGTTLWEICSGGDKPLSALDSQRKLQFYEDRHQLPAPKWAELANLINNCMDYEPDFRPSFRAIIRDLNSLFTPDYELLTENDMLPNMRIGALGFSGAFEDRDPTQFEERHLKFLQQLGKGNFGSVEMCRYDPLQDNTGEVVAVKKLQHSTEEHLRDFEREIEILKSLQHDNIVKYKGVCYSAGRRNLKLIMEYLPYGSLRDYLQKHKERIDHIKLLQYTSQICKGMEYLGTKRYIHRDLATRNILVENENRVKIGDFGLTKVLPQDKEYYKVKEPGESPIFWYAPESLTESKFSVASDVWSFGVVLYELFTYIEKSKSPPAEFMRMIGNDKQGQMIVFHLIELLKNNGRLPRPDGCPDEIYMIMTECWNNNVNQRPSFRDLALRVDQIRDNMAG
smiles,measurement,setting,value
"COc1cc(Nc2cc(CO)[nH]n2)nc(N(C)[C@@H]2C[C@H]3CCC[C@@H](C2)N3S(=O)(=O)N2CC(C#N)C2)n1 [Example 2, 1-(((1R,3s,5S)-3-((4-((5-(Hydroxymethyl)-1H-pyrazol-3-yl)amino)-6-methoxypyrimidin-2-yl)(methyl)amino)-9-azabicyclo[3.3.1]nonan-9-yl)sulfonyl)azetidine-3-carbonitrile]",inhibition of TPA-induced increase in ear thickness (in words),[1]; topical 30-3000 μg,dose- and concentration-dependent effect; also recorded: dose- and concentration-dependent inhibition
same,maximum statistically significant inhibition of TPA-induced increase in ear thickness,"[1]; topical, 1000 μg dose",41%
same,bioavailability,"[2]; Sprague Dawley, plasma (jugular vein), oral vs IV, read-out: oral bioavailability (F %)",< 5%
same,absorption at the portal vein (Fa %),"[2]; oral, portal vein",less than 25%
same,JAK 2 (pKi),JAK2,A (A represents a pKi value≥10 (Ki≤0.1 nM))
same,Ki,JAK3,0.1 to 1 nM
